Data on three sequences can be found in patent US20080306001A1, “TRANSCRIPTIONAL MODULATION OF EXTRACELLULAR MATRIX (ECM) OF DERMAL FIBROBLASTS” (priority 2007, published 2008).

Experiment [1] concerns dermal fibroblasts. Description: Effect of interfering peptides on expression of ECM components, protein level (Western blot). It counts as cell-based, human. The procedure:
(§1) Human dermal fibroblasts were cultured in standard conditions (DMEM, 10% FCS, penicillin+streptomycin) and used in experiments after three passages in the laboratory. Cells were grown in 24 well plates, each treatment in triplicates. Cells were plated 16 hours prior treatments started. Peptides were added to the media, and media was changed every day during 7 day experiment. CPP concentration was 10 μM.
(§2) Western blot using antibodies against fibronectin, thrombospondin, collagen I, collagen II, collagen 4, elastin, MMP1, MMP2, MMP7 and TIMP1 were performed using standard protocols. Cells were lysed in SDS loading buffer and separated on 5% SDS PAGE following transfer onto PVD membrane using semidry blotting. Antibodies were diluted 1:2000 and incubated for 2 hours followed by secondary antibody conjugated to alkaline phosphatase. Antibody binding was visualized using one step BCIP reagent (Pierce).
(§3) The cells were treated with peptides (1 μM) 24 hours for the mRNA analysis and 72 hours for protein analysis. All experiments were done in triplicates. Variation between replicates was less that 15%.
For orientation: Immunoblotting shows a protein as a band on a membrane.

Experiment [2] has as its system dermal fibroblasts. Briefly: Effect of interfering peptides on expression of ECM components, mRNA level (RT-PCR). The class given is cell-based, human. Particulars: peptide 1 μM, 24 hours. On the procedure:
as §1
(§4) Total RNA from various human tissues was purified using RNAwiz (Ambion, USA) and subjected to subsequent DNase I treatment using the DNA-Free kit (Ambion). Total RNA from cancer cells was purified by using 4PCRmini kit (Ambion). First-strand cDNAs were synthesized with Superscript III reverse transcriptase (Invitrogen, USA) and 5 μg of total RNA using oligo d(T) priming in a final reaction volume of 50 μL
The cDNA was amplified by PCR using the 2,5U Hot-Firepol (Solis BioDyne, Estonia) and buffer Yellow (Naxo, Estonia). Reaction was performed in a 10 ul volume, using 0.5 ul cDNA as a template. Following primer sets were designed for this study:
as §3

For experiment [3], the system named is human dermal fibroblasts. Briefly: Whole genome gene expression analysis (Affymetrix GeneChip Human Gene 1.0 ST Array). The class given is cell-based. Particulars: peptide 10 μM, 24 hour. The procedure:
Human dermal fibroblasts were cultured in standard conditions (DMEM, 10% FCS, penicillin+streptomycin) and used in experiments after three passages in the laboratory. Cells were grown in 60 mm plates, each treatment in duplicates. Cells were plated 16 hours prior treatments started. Peptides (10 μM) were added to the media, and cells were collected for RNA isolation 24 hour later.
Total RNA was purified by using 4PCRmini kit (Ambion). First-strand cDNAs were synthesized with Superscript III reverse transcriptase (Invitrogen, USA) and 5 μg of total RNA using oligo d(T) priming in a final reaction volume of 50 μL and used to generate fluorescently labeled probes for whole genome gene expression analysis. Whole genome gene expression analysis was conducted using Affymetrix GeneChip™ Human Gene 1.0 ST Array.

For experiment [4], the system named is human dermal fibroblasts. Description: Effect of peptides on expression of growth factors, mRNA (RT-PCR). The class given is cell-based. On the procedure: (§5) Human dermal fibroblasts were cultured in standard conditions (DMEM, 10% FCS, penicillin+streptomycin) and used in experiments after three passages in the laboratory. Cells were grown in 12 well plates, each treatment in triplicates. Cells were plated 16 hours prior treatments started. Peptides were added to the media, and media was changed every day during 7 day experiment. CPP concentration was 10 μM.
as §4
The cDNA was amplified by PCR using the 2,5U Hot-Firepol (Solis BioDyne, Estonia) and buffer Yellow (Naxo, Estonia). Reaction was performed in a 10 ul volume, using 0.5 ul cDNA as a template. Primer sets were designed to specifically amplify the nucleic acid sequence for the corresponding growth factor for this study: […]

Experiment [5] concerns human dermal fibroblasts. Briefly: Effect of peptides on expression of growth factors, protein (Western blot). The class given is cell-based. As to conditions: peptide 10 μM. The procedure:
as §5
Western blots using antibodies against growth factors were performed using standard protocols. Cells were lysed in SDS loading buffer and separated on 5% SDS PAGE following transfer onto PVD membrane using semidry blotting. Antibodies were diluted 1:2000 and incubated for 2 hours followed by secondary antibody conjugated to alkaline phosphatase. Antibody binding was visualized using one step BCIP reagent (Pierce).

The subject of experiment [6] is human dermal fibroblast cell lines obtained from elderly patients. Briefly: Effect of CPP mimicking peptides on synthesis of collagen I, collagen II and elastin in aged dermal fibroblasts (Western blot). As to conditions: peptide 10 μM. The class given is cell-based. On the procedure:
The ability to interfere interaction of TAF4, BRG1 and N-CoR1 with the active transcriptional complex and stimulate synthesis of collagen I, collagen II and elastin was tested on 2 human dermal fibroblast cell lines obtained from elderly patients. It has been shown that: • TAF4 suppression using siRNA stimulates expression of numerous genes in embryonic fibroblasts. (Mengus G, Fadloun A, Kobi D, Thibault C, Perletti L, Michel I, Davidson I. 2005. TAF4 inactivation in embryonic fibroblasts activates TGFbeta signaling and autocrine growth. EMBO J. 2005 Aug. 3; 24(15):2753-67.) • Brg1 inhibits numerous genes during development. (Inayoshi Y, Kaneoka H, Machida Y, Terajima M, Dohda T, Miyake K, Iijima S. 2005. Repression of GR-mediated expression of the tryptophan oxygenase gene by the SWI/SNF complex during liver development. J Biochem (Tokyo). 2005 October; 138(4):457-65) • N-CoR1 plays a crucial role in the repressive activity of diverse transcription factors (J. Frasor, J. M. Danes, C. C. Funk and B. S. Katzenellenbogen. 2005. Estrogen down-regulation of the corepressor N-CoR: Mechanism and implications for estrogen derepression of N-CoR-regulated genes. PNAS. vol. 102 no. 37, 13153-13157.) • SMAD7 functions as a component of negative feedback regulation that controls timining and extent of TGFbeta signaling (Zhu X, Topouzis S, Liang L F, Stotish RL. Myostatin signaling through Smad2, Smad3 and Smad4 is regulated by the inhibitory Smad7 by a negative feedback mechanism. Cytokine. 2004 Jun. 21; 26(6):262-72.) • TAF10 is one of the TATA box-binding protein-associated factors (TAFs), which constitute the TFIID complex.
as §1, §2

[7] abbreviates: fibroblast 1 (first block of Table 1).
Setting [8] is: second block of Table 1 (also fibroblast 1).

Consider “RPKKRKVRRRGQLNSDHKSQLVEKVRLKIGCGIQL [SMAD7.1, CPP-mimicking peptide]”, for which, in experiment [1] (dermal fibroblasts in vitro, protein and mRNA), the “expression of components of ECM (in words)” value is given as “stimulate expression of components of ECM”. Further, in experiment [1] (peptide 1 μM, 72 hours), the “CollagenI protein, fold stimulation” value came out at 2.9 fold; the “Elastin protein, fold stimulation” value came to 2.6 fold; the “Fibronectin protein, fold stimulation” value is reported as 3.1 fold; the “MMP1 protein, fold stimulation” value was 1.9 fold. For the same sequence, in experiment [1] (peptide 1 μM, 72 hours), the “MMP2 protein, fold stimulation” value was 1.1 fold; the “MMP7 protein, fold stimulation” value is 1.9 fold; the “TIMP protein, fold stimulation” value came out at 1.3 fold; the “collagen IV protein, fold stimulation” value is on record as 2.1 fold. The “thrombospondin protein, fold stimulation” value in experiment [1] (peptide 1 μM, 72 hours) was 3.2 fold. Moreover, in experiment [2], the “MMP1 mRNA, fold stimulation” value was determined as 3.6 fold; the “MMP7 mRNA, fold stimulation” value is recorded as 2.9 fold; the “MMp2 mRNA, fold stimulation” value amounted to 1.9 fold; the “TIMP mRNA, fold stimulation” value came to 4.3 fold. In experiment [2], the “collagen IV mRNA, fold stimulation” value worked out at 5.4 fold; the “collagenI mRNA, fold stimulation” value came out at 7.9 fold; the “elastin mRNA, fold stimulation” value was 7.7 fold; the “fibronectin mRNA, fold stimulation” value is recorded as 8.7 fold. Moreover, the “thrombospondin mRNA, fold stimulation” value in experiment [2] came to 6.9 fold. Further, in experiment [3], the “Number of genes with altered expression: expression stimulated 2-5 fold” value amounted to 986, the “Number of genes with altered expression: expression stimulated more than 5 fold” value came to 198, the “Number of genes with altered expression: expression suppressed 2-5 fold” value is reported as 1011 and the “Number of genes with altered expression: expression suppressed more than 5 fold” value turned out to be 124. In experiment [4] (peptide 10 μM), the “CTGF mRNA, fold stimulation of expression compared to control” value stood at 27 fold; the “HGF mRNA, fold stimulation of expression compared to control” value amounted to 8 fold; the “IGF-1 mRNA, fold stimulation of expression compared to control” value is reported as 4 fold; the “VEGF mRNA, fold stimulation of expression compared to control” value is reported as 4 fold. Besides, in experiment [4] (peptide 10 μM), the “b-FGF mRNA, fold stimulation of expression compared to control” value stood at 2 fold. The “expression of CTGF (in words)” value in experiment [4] (protein and mRNA) is recorded as “stimulate expression of CTGF significantly”. In experiment [5], the “CTGF protein, fold stimulation of expression compared to control” value is 15 fold; the “HGF protein, fold stimulation of expression compared to control” value was 1.7 fold; the “IGF-1 protein, fold stimulation of expression compared to control” value is 1 fold; the “VEGF protein, fold stimulation of expression compared to control” value was determined as 1.3 fold. Further, the “b-FGF protein, fold stimulation of expression compared to control” value in experiment [5] stood at 1 fold.

Turning to “RPKKRKVRRRMGLGKTIQTIALITYLMEHKRINGP [BRG1.1, CPP-mimicking peptide]”, in experiment [6] (setting [7]), the “collagen I, fold increase after 7 days” value is listed as 7 fold; the “collagen II, fold increase after 7 days” value is given as 2 fold; the “elastin, fold increase after 7 days” value was found to be 3 fold. Moreover, in experiment [6] (setting [8]), the “collagen I, fold increase after 7 days” value was 3 fold; the “collagen II, fold increase after 7 days” value worked out at 5 fold; the “elastin, fold increase after 7 days” value amounted to 6 fold.

For “RPKKRKVRRRLATNSELVGTLTRSCKDETFLL (synethetic amino acid sequence) [TAF4.1, CPP-mimicking peptide]”, in experiment [6] (setting [7]), the “collagen I, fold increase after 7 days” value is listed as 5 fold; the “collagen II, fold increase after 7 days” value is 3 fold; the “elastin, fold increase after 7 days” value turned out to be 4 fold. Besides, in experiment [6] (setting [8]), the “collagen I, fold increase after 7 days” value turned out to be 2 fold; the “collagen II, fold increase after 7 days” value came out at 4 fold; the “elastin, fold increase after 7 days” value was found to be 2 fold.
